Data taken from PubChem BioAssay AID2060512 (Molecular Pharmacology Branch, DTP, NCI, 2025).

System: 186277-243-T-J2-PDC complex spheroid viability
Test: Anticancer human tumor 186277-243-T-J2-PDC patient-derived colon adenocarcinoma cell line growth inhibition [GQUAD]
Details: for IC50: curve of first compound; for viability, T/C: stronger effect = lower value; active = viability on the fitted dose curve at most 10% of control; inactive = the rest
Text: DNA G-quadruplex Stabilizer Agents in Combinations in Complex Spheroids
A high-throughput screen of multi-cell type tumor spheroids was designed to identify active combinations of DNA G-quadruplex stabilizer agents and targeted small molecules. Complex spheroids include a stromal component modeled by human endothelial cells (HUVEC) and fibroblasts modeled by human mesenchymal stem cells (MSCs). The concentration ranges selected for each drug and investigational agent were based upon clinically achievable concentrations if the clinical Cmax of the agent was known.
Compounds. The drugs and investigational agents: pidnarulex (CX-5461; NSC782164), APTO-253 (NSC789042), BRACO-19 (NSC847499), peposertib (NSC802822), ceralasertib (NSC780249), elimusertib (NSC800525), camonsertib (NSC841442), AZD-1390 (NSC803789), olaparib (NSC753686), talazoparib (NSC767125), ART-558 (NSC835418), sotorasib (NSC818433), MRTX-1133 (NSC836407), SN-38 (NSC673596), topotecan (NSC609699), etoposide (NSC141540), doxorubicin (NSC123127), gemcitabine (NSC613327), 5-fluorouracil (NSC19893), paclitaxel (NSC125973), vemurafenib (NSC761431), panobinostat (NSC761190), R-306465 (JNJ-16241199; NSC773264), adavosertib (NSC754352), TP-3654 (NSC805149), carboplatin (NSC241240), KSQ-4279 (NSC840948), and staurosporine (NSC755774) were obtained from the National Cancer Institute (NCI) Developmental Therapeutics Program Chemical Repository (34). The FDA-approved anticancer drug set is available from the NCI Developmental Therapeutics Program. […] The stock solutions were prepared in dimethyl sulfoxide (DMSO, Sigma-Aldrich, St. Louis, MO, cat. D2650) at 800-fold the tested concentration and stored at -70 degrees C prior to their use. All drugs and investigational agents were tested over a range starting from a high concentration at or near the clinical Cmax and decreasing in half-log increments. If the clinical Cmax for an agent had not been determined, the highest concentration tested was 10 microM.
2.3 Cell Culture. All cells were maintained in an incubator at 37 degrees C and 5% CO2 with 95% humidity. The PDC lines were cultured according to standard operating procedures established by the NCI PDMR. All PDCs were thawed and cultured in Matrigel-coated flasks prepared with a working solution of 1X Ham's F-12 nutrient mix, without supplementation (Invitrogen, cat. 11765054), 100 U/mL penicillin-streptomycin (Invitrogen, cat. 15140122), and 2.5% Matrigel (Corning Inc., cat. 354248) for the first three passages. The 857933-349-R-J2-PDC line was cultured in 6C/Colon 1B media, which includes advanced DMEM/F-12 (Thermo Fisher Scientific, cat. 12634028), 10 mM HEPES (Thermo Fisher Scientific, cat. 15630080), 1X GlutaMAX supplement (Thermo Fisher Scientific, cat. 35050061), 0.1 mg/mL primocin (InvivoGen, cat. ant-pm-2), 10% defined fetal bovine serum, heat inactivated (HyClone Laboratories Inc., cat. SH30070.03HI), 50% L-WRN conditioned media (ATCC, cat. CRL-3276), 1.25 mM N-Acetyl-L-cysteine (Sigma-Aldrich, cat. A9165), 10 mM nicotinamide (Sigma-Aldrich, cat. N0636), 1X B-27 supplement (Thermo Fisher Scientific, cat. 17504044), 1X N-2 supplement (Thermo Fisher Scientific, cat. 17502048), 10 microM Y-27632 dihydrochloride (Tocris Bioscience, cat. 1254), and 50 ng/mL human EGF recombinant protein (Thermo Fisher Scientific, cat. PHG0311). The 485176-168-R4-J1-PDC line was cultured in Panc media, which includes all 6C/Colon 1B media components plus 100 ng/mL human FGF-10 (Thermo Fisher Scientific, cat. 100-26), 500 nM SB-431542 (Selleckchem, cat. S1067), and gastrin (Tocris, cat. 3006).
[…]
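Also: spheroids exposed to drugs for 7 days.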

C=CCn1c(=O)c2cnc(Nc3ccc(N4CCN(C)CC4)cc3)nc2n1-c1cccc(C(C)(C)O)n1 + Cc1cnc(CNC(=O)c2c(=O)c3ccc(N4CCCN(C)CC4)nc3n3c2sc2ccccc23)cn1
117 nM: IC50 (second compound 0.0316 µM)
< 31.6 nM: IC50 (second compound 0.1 µM) | IC50 (second compound 1 µM) | IC50 (second compound 3.16 µM) | IC50 (second compound 10 µM)
35.1 nM: IC50 (second compound 0.316 µM)
inactive: viability, T/C (second compound 0.0316 µM, first compound 0.0316 µM) 93.8% | viability, T/C (second compound 0.0316 µM, first compound 0.1 µM) 54.3% | viability, T/C (second compound 0.0316 µM, first compound 0.316 µM) 22% | viability, T/C (second compound 0.0316 µM, first compound 1 µM) 10.2% | viability, T/C (second compound 0.0316 µM, first compound 3.16 µM) 12.2% | viability, T/C (second compound 0.0316 µM, first compound 10 µM) 15.5% | viability, T/C (second compound 0.1 µM, first compound 0.0316 µM) 49.1% | viability, T/C (second compound 0.1 µM, first compound 0.1 µM) 44.2% | viability, T/C (second compound 0.1 µM, first compound 0.316 µM) 25.8% | viability, T/C (second compound 0.1 µM, first compound 1 µM) 14.7% | viability, T/C (second compound 0.1 µM, first compound 3.16 µM) 13.8% | viability, T/C (second compound 0.1 µM, first compound 10 µM) 20.5% | viability, T/C (second compound 0.316 µM, first compound 0.0316 µM) 51.8% | viability, T/C (second compound 0.316 µM, first compound 0.1 µM) 46.4% | viability, T/C (second compound 0.316 µM, first compound 0.316 µM) 33.5% | viability, T/C (second compound 0.316 µM, first compound 1 µM) 17.6% | viability, T/C (second compound 0.316 µM, first compound 3.16 µM) 17.8% | viability, T/C (second compound 0.316 µM, first compound 10 µM) 24.1% | viability, T/C (second compound 1 µM, first compound 0.0316 µM) 27.7% | viability, T/C (second compound 1 µM, first compound 0.1 µM) 35.9% | viability, T/C (second compound 1 µM, first compound 0.316 µM) 30.5% | viability, T/C (second compound 1 µM, first compound 1 µM) 24.4% | viability, T/C (second compound 1 µM, first compound 3.16 µM) 23.5% | viability, T/C (second compound 1 µM, first compound 10 µM) 26.4% | viability, T/C (second compound 3.16 µM, first compound 0.0316 µM) 34.5% | viability, T/C (second compound 3.16 µM, first compound 0.1 µM) 31.7% | viability, T/C (second compound 3.16 µM, first compound 0.316 µM) 34.5% | viability, T/C (second compound 3.16 µM, first compound 1 µM) 21.9% | viability, T/C (second compound 3.16 µM, first compound 3.16 µM) 23.4% | viability, T/C (second compound 3.16 µM, first compound 10 µM) 22.6% | viability, T/C (second compound 10 µM, first compound 0.0316 µM) 31.8% | viability, T/C (second compound 10 µM, first compound 0.1 µM) 31.6% | viability, T/C (second compound 10 µM, first compound 0.316 µM) 31.5% | viability, T/C (second compound 10 µM, first compound 1 µM) 22.9% | viability, T/C (second compound 10 µM, first compound 3.16 µM) 22.8% | viability, T/C (second compound 10 µM, first compound 10 µM) 24.4%
